This note sets out measurements from patent US6267968A, “MDP derivatives and conjugates having haematipoietic function stimulating activity, and compositions containing same” (Vacsyn S.A., priority 1995, dated 2001).

Data set [1] relates to circulating leukocytes, neutrophils and myelocytes. The experiment in a line: Intravenous or oral Muradimetide, cell counts modified by intravenous AZT (Example 2). Format: in vivo, male CDI mice. The method, then:
Treatment with AZT alone classically induces a decrease in the number of circulating leukocytes and neutrophils. This decrease is followed by a restoration occurring approximately 4 to 7 days after the beginning of the treatment. When Muradimetide has been administered systemically or orally after a treatment with 40 mg/kg of AZT, there is no fall in the number of cells and, on the contrary, there is a multiplication by at least 1.5 of the number of leukocytes and a tripling of the number of neutrophils, this already occurring after 4 days.
Male CDI mice (5 per group) were injected with AZT at a dose of 40 mg per kg on days 0 to 3. Muradimetide is administered on the same days at a dose of 10 mg per kg intravenously or 50 mg per kg orally. Cell counts are done an day 0 (before the treatment) and on days 3 and 4.

Data set [2] relates to red cells and platelets. The experiment in a line: 7-day oral treatment with AZT, muradimetide or both, red cell and platelet counts (Example 3). Format: in vivo. The note with it: p.o. once daily for 7 consecutive days; AZT 100 mg/kg, muradimetide 50 mg/kg or both; counts up to day 10. The method, then:
The effect of a 7-day treatment on the number of red cells and of platelets is seen in FIGS. 9 and 10, respectively. The counts are shown as a percentage of those obtained on day 0. Female BALB/c mice (5 per group) are treated once daily for 7 consecutive days with 100 mg/kg of AZT (Δ), 50 mg/kg of muradimetide (.quadrature.) or simultaneously with 100 mg/kg of AZT and 50 mg/kg of muradimetide (.largecircle.). Platelet or red cell counts were done on day 0 and up to 10 days following the beginning of the treatment. No toxicity on the platelets is seen, either with AZT, muradimetide or the mixture of these compounds. The upward trend in their number is apparent between days 4 and 5.

Setting [3] is: Muradimetide i.v. 10 mg/kg with AZT i.v. 40 mg/kg, day 0 (before the treatment).
The mark [4] stands for this setting: Muradimetide i.v. 10 mg/kg with AZT i.v. 40 mg/kg, day 3.
The mark [5] stands for this setting: Muradimetide i.v. 10 mg/kg with AZT i.v. 40 mg/kg, day 4.
[6] abbreviates: Muradimetide p.o. 50 mg/Kg with AZT i.v. 40 mg/kg, day 0 (before the treatment).
[7] abbreviates: Muradimetide p.o. 50 mg/Kg with AZT i.v. 40 mg/kg, day 3.
Setting [8] is: Muradimetide p.o. 50 mg/Kg with AZT i.v. 40 mg/kg, day 4.
[9] abbreviates: Muradimetide systemically or orally after treatment with 40 mg/kg of AZT, after 4 days.

On to `COC(=O)CC[C@@H](NC(=O)[C@H](C)NC(=O)[C@@H](C)O[C@H]1[C@H](O)[C@@H](CO)OC(O)[C@@H]1NC(C)=O)C(=O)OC` (stereo partly drawn) [Muradimetide, Nac--Mur--L--Ala--D--Glu--[OCH3]--OCH3], for which the Leukocytes in data set [1] (Muradimetide i.v. 10 mg/kg days 0-3 with AZT i.v. 40 mg/kg, day 0 (before the treatment)) is 6.0 ± 3.4 × 10^6 /ml; in data set [1] (Muradimetide i.v. 10 mg/kg days 0-3 with AZT i.v. 40 mg/kg, day 3), 5.9 ± 2.9 × 10^6 /ml; in data set [1] (Muradimetide i.v. 10 mg/kg days 0-3 with AZT i.v. 40 mg/kg, day 4) it was 7.6 ± 1.6 × 10^6 /ml; in data set [1] (Muradimetide p.o. 50 mg/Kg days 0-3 with AZT i.v. 40 mg/kg, day 0 (before the treatment)), 4.8 ± 0.4 × 10^6 /ml; in data set [1] (Muradimetide p.o. 50 mg/Kg days 0-3 with AZT i.v. 40 mg/kg, day 3), 6.1 ± 1.4 × 10^6 /ml; in data set [1] (Muradimetide p.o. 50 mg/Kg days 0-3 with AZT i.v. 40 mg/kg, day 4) it was 8.1 ± 2.9 × 10^6 /ml. The Myelocytes is 5 ± 7 × 10^4 /ml in data set [1] (setting [3]); 145 ± 83 × 10^4 /ml in data set [1] (setting [4]); 117 ± 46 × 10^4 /ml in data set [1] (setting [5]); 14 ± 13 × 10^4 /ml in data set [1] (setting [6]); 123 ± 55 × 10^4 /ml in data set [1] (setting [7]); 138 ± 59 × 10^4 /ml in data set [1] (setting [8]). In addition, the Neutrophils is 2.0 ± 1.3 × 10^6 /ml in data set [1] (setting [3]); 1.5 ± 0.8 × 10^6 /ml in data set [1] (setting [4]); 4.6 ± 1.5 × 10^6 /ml in data set [1] (setting [5]); 1.4 ± 0.5 × 10^6 /ml in data set [1] (setting [6]); 1.6 ± 0.5 × 10^6 /ml in data set [1] (setting [7]); 4.3 ± 2.47 × 10^6 /ml in data set [1] (setting [8]). Moreover, in data set [1] (setting [9]), the “increase of the number of neutrophils” value is “tripling”. Besides, the “multiplication of the number of leukocytes” value in data set [1] (setting [9]) was “at least 1.5”. In addition, the “percentage of myelocytes or of promyelocytes” value in data set [1] (with AZT 40 mg/kg i.v., irrespective of mode of administration of Muradimetide) is on record as “spectacular increase”. Also, in data set [2], the “toxicity on the platelets” value is recorded as “No toxicity”.
